Measured values published in patent US9670227B2, “Thienopyrimidine derivatives, a process for their preparation and pharmaceutical compositions containing them” (LES LABORATOIRES SERVIER, priority 2013, dated 2017).
Read-outs that look alike come from different tables or passages of the source.

How the values were obtained:
Mcl-1 protein = Mcl-1 protein (UniProtKB primary accession number: Q07820) (Homo sapiens, UniProt Q07820); assay: Inhibition of Mcl-1 by fluorescence polarisation, Method 1; type: binding; settings: fluorescence polarisation test; Method 2 values are underlined in the patent (underlining not visible here); read-out: IC50 (M) Mcl-1 FP
Sequence of Mcl-1 protein (Q07820 whole entry): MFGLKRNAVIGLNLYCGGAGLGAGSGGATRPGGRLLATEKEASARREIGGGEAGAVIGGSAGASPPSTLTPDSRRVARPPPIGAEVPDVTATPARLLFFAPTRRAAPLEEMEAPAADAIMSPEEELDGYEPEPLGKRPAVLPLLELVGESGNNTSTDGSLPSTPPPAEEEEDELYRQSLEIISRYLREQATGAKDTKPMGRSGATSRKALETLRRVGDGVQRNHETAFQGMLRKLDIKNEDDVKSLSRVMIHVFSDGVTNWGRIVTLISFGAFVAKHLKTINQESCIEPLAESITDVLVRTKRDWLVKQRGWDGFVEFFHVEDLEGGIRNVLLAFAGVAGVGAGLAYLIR
Summary of the method: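 Fluorescence polarisation competition with an 11-point compound dilution series (final DMSO 5%). Mcl-1 protein at 5 nM and fluorescein-labelled ligand at 1 nM (final) in 10 mM HEPES, 150 mM NaCl, 0.05% Tween 20, pH 7.4.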

[1] = system: H929 multiple myeloma tumour line; assay: In vitro cytotoxicity, Microculture Tetrazolium Assay; type: cell-based; settings: H929 cells, 48 hours exposure, MTT, read-out: IC50 (μM) MTT H929
Protocol: The cytotoxicity studies were carried out on the H929 multiple myeloma tumour line.
The cells are distributed onto microplates and exposed to the test compounds for 48 hours.

[2] = system: AMO-1 multiple myeloma cells; assay: Quantification of the cleaved form of PARP in vivo (MSD ELISA, tumour lysates); parameters: species or system mice (SCID strain); settings: activation factor: cleaved PARP in treated mice / control mice, AMO-1 xenograft in SCID mice, intraveinous or oral routes
Protocol: The ability of the compounds of the invention to induce apoptosis, by measuring cleaved PARP levels, is evaluated in a xenograft model of AMO-1 multiple myeloma cells. 1.10^7 AMO-1 cells are grafted sub-cutaneously into immunosuppressed mice (SCID strain). 12 to 14 days after the graft, the animals are treated by intraveinous or oral routes with the various compounds. After treatment, the tumour masses are recovered and lysed, and the cleaved form of PARP is quantified in the tumour lysates.
The quantification is carried out using the “Meso Scale Discovery (MSD) ELISA platform” test, which specifically assays the cleaved form of PARP. It is expressed in the form of an activation factor corresponding to the ratio between the quantity of cleaved PARP in the treated mice divided by the quantity of cleaved PARP in the control mice.

Compound | IC50 (Mcl-1 protein) [M] | IC50 [1] [µM] | PARP fold [2] [fold] | IC50 ([1]; Homo sapiens, NCI-H929, 48 h) [µM]
CCOCc1nccc(COc2ccccc2C[C@@H](Oc2ncnc3sc(-c4ccc(F)cc4)c(-c4ccc(OCCN5CCN(C)CC5)c(Cl)c4C)c23)C(=O)O)n1 [Example 47, (2R)-2-{[(5Sa)-5-{3-chloro-2-methyl-4-[2-(4-methylpiperazin-1-yl)ethoxy]phenyl}-6-(4-fluorophenyl)thieno[2,3-d]pyrimidin-4-yl]oxy}-3-(2-{[2-(ethoxymethyl)pyrimidin-4-yl]methoxy}phenyl)propanoic acid] | 7.8e-09 | 0.005 | 101.1 | 
Cc1c(-c2c(-c3ccc(F)cc3)sc3ncnc(OC(Cc4ccccc4OCc4ccnc(-n5cccn5)n4)C(=O)O)c23)ccc(OCCN2CCN(C)CC2)c1Cl [Example 49, (2R)-2-{[(5Sa)-5-{3-chloro-2-methyl-4-[2-(4-methylpiperazin-1-yl)ethoxy]phenyl}-6-(4-fluorophenyl)thieno[2,3-d]pyrimidin-4-yl]oxy}-3-(2-{[2-(1H-pyrazol-1-yl)pyrimidin-4-yl]methoxy}phenyl)propanoic acid] | 2.5e-09 |  | 180.5 | 0.012
COCCNc1nccc(COc2ccccc2CC(Oc2ncnc3sc(-c4ccc(F)cc4)c(-c4ccc(OCCN5CCN(C)CC5)c(Cl)c4C)c23)C(=O)O)n1 [Example 53, (2R)-2-{[(5Sa)-5-{3-chloro-2-methyl-4-[2-(4-methylpiperazin-1-yl)ethoxy]phenyl}-6-(4-fluorophenyl)thieno[2,3-d]pyrimidin-4-yl]oxy}-3-[2-({2-[(2-methoxyethyl)amino]pyrimidin-4-yl}methoxy)phenyl]propanoic acid] | 3.4e-09 |  | 178.7 | 0.015
Cc1c(-c2c(-c3ccc(F)cc3)sc3ncnc(OC(Cc4ccccc4OCc4ccnc(OC(C)C)n4)C(=O)O)c23)ccc(OCCN2CCN(C)CC2)c1Cl [Example 55, (2R)-2-{[(5Sa)-5-{3-chloro-2-methyl-4-[2-(4-methylpiperazin-1-yl)ethoxy]phenyl}-6-(4-fluorophenyl)thieno[2,3-d]pyrimidin-4-yl]oxy}-3-(2-{[2-(propan-2-yloxy)pyrimidin-4-yl]methoxy}phenyl)propanoic acid] | 5.8e-09 |  | 188.4 | 0.007
CCOc1nccc(COc2ccccc2CC(Oc2ncnc3sc(-c4ccc(F)cc4)c(-c4ccc(OCCN5CCN(C)CC5)c(Cl)c4C)c23)C(=O)O)n1 [Example 57, (2R)-2-{[(5Sa)-5-{3-chloro-2-methyl-4-[2-(4-methylpiperazin-1-yl)ethoxy]phenyl}-6-(4-fluorophenyl)thieno[2,3-d]pyrimidin-4-yl]oxy}-3-{2-[(2-ethoxypyrimidin-4-yl)methoxy]phenyl}propanoic acid] | 5e-09 |  | 198.3 | 0.008
Cc1c(-c2c(-c3ccc(F)cc3)sc3ncnc(OC(Cc4ccccc4OCc4ccnc(OCC(F)(F)F)n4)C(=O)O)c23)ccc(OCCN2CCN(C)CC2)c1Cl [Example 58, (2R)-2-{[(5Sa)-5-{3-chloro-2-methyl-4-[2-(4-methylpiperazin-1-yl)ethoxy]phenyl}-6-(4-fluorophenyl)thieno[2,3-d]pyrimidin-4-yl]oxy}-3-(2-{[2-(2,2,2-trifluoroethoxy)pyrimidin-4-yl]methoxy}phenyl)propanoic acid] | 4e-09 |  | 181.9 | 0.01
Cc1c(-c2c(-c3ccc(F)cc3)sc3ncnc(OC(Cc4ccccc4OCc4ccnc(OCCC(F)(F)F)n4)C(=O)O)c23)ccc(OCCN2CCN(C)CC2)c1Cl [Example 62, (2R)-2-{[(5Sa)-5-{3-chloro-2-methyl-4-[2-(4-methylpiperazin-1-yl)ethoxy]phenyl}-6-(4-fluorophenyl)thieno[2,3-d]pyrimidin-4-yl]oxy}-3-(2-{[2-(3,3,3-trifluoropropoxy)pyrimidin-4-yl]methoxy}phenyl)propanoic acid] | 3.9e-09 |  | 391.6 | 0.008
COCCOc1nccc(COc2ccccc2CC(Oc2ncnc3sc(-c4ccc(F)cc4)c(-c4ccc(OCCN5CCN(C)CC5)c(Cl)c4C)c23)C(=O)O)n1 [Example 63, (2R)-2-{[(5Sa)-5-{3-chloro-2-methyl-4-[2-(4-methylpiperazin-1-yl)ethoxy]phenyl}-6-(4-fluorophenyl)thieno[2,3-d]pyrimidin-4-yl]oxy}-3-(2-{[2-(2-methoxyethoxy)pyrimidin-4-yl]methoxy}phenyl)propanoic acid] | 4.5e-09 |  | 177.8 | 0.009
CCCCn1nncc1COc1ccccc1CC(Oc1ncnc2sc(-c3ccc(F)cc3)c(-c3ccc(OCCN4CCN(C)CC4)c(Cl)c3C)c12)C(=O)O [Example 95, (2R)-3-{2-[(1-butyl-1H-1,2,3-triazol-5-yl)methoxy]phenyl}-2-{[(5Sa)-5-{3-chloro-2-methyl-4-[2-(4-methylpiperazin-1-yl)ethoxy]phenyl}-6-(4-fluorophenyl)thieno[2,3-d]pyrimidin-4-yl]oxy}propanoic acid] | 4.2e-09 |  | 156.8 | 0.022
Cc1c(-c2c(-c3ccc(F)cc3)sc3ncnc(OC(Cc4ccccc4OCc4ccnc(-c5ccccc5F)n4)C(=O)O)c23)ccc(OCCN2CCN(C)CC2)c1Cl [Example 114, (2R)-2-{[(5Sa)-5-{3-chloro-2-methyl-4-[2-(4-methylpiperazin-1-yl)ethoxy]phenyl}-6-(4-fluorophenyl)thieno[2,3-d]pyrimidin-4-yl]oxy}-3-(2-{[2-(2-fluorophenyl)pyrimidin-4-yl]methoxy}phenyl)propanoic acid] | 2.1e-09 |  | 158.2 | 0.005
Cc1cc(-c2nccc(COc3ccccc3CC(Oc3ncnc4sc(-c5ccc(F)cc5)c(-c5ccc(OCCN6CCN(C)CC6)c(Cl)c5C)c34)C(=O)O)n2)ccn1 [Example 118, (2R)-2-{[(5Sa)-5-{3-chloro-2-methyl-4-[2-(4-methylpiperazin-1-yl)ethoxy]phenyl}-6-(4-fluorophenyl)thieno[2,3-d]pyrimidin-4-yl]oxy}-3-(2-{[2-(2-methylpyridin-4-yl)pyrimidin-4-yl]methoxy}phenyl)propanoic acid] | 5.5e-09 |  | 159.8 | 0.006
Cc1ccncc1-c1nccc(COc2ccccc2CC(Oc2ncnc3sc(-c4ccc(F)cc4)c(-c4ccc(OCCN(C)C)c(Cl)c4C)c23)C(=O)O)n1 [Example 138, (2R)-2-{[(5Sa)-5-{3-chloro-4-[2-(dimethylamino)ethoxy]-2-methylphenyl}-6-(4-fluorophenyl)thieno[2,3-d]pyrimidin-4-yl]oxy}-3-(2-{[2-(4-methylpyridin-3-yl)pyrimidin-4-yl]methoxy}phenyl)propanoic acid] | 8.9e-09 |  | 333.9 | 0.013
Cc1c(-c2c(-c3ccc(F)o3)sc3ncnc(OC(Cc4ccccc4OCc4ccnc(C(F)(F)F)c4)C(=O)O)c23)ccc(OCCN2CCN(C)CC2)c1Cl [Example 167, (2R)-2-{[(5Sa)-5-{3-chloro-2-methyl-4-[2-(4-methylpiperazin-1-yl)ethoxy]phenyl}-6-(5-fluorofuran-2-yl)thieno[2,3-d]pyrimidin-4-yl]oxy}-3-(2-{[2-(trifluoromethyl)pyridin-4-yl]methoxy}phenyl)propanoic acid] | 4.6e-09 |  | 230.1 | 0.01
